Assay results as given in article PMC11219871, “Epigenetic-based differentiation therapy for Acute Myeloid Leukemia” (Nature Communications, 2024).

Columns and labels:
Type in all cases: biochemical
HDAC6 = target: T1, HDAC6 (Homo sapiens, UniProt Q9UBN7); assay: HDAC enzymatic assay, fluorescence-labeled substrate; conditions: for inhibition at 10 µM: source data of Fig. 1B; for IC50: read-out: IC50
T1 sequence (Q9UBN7 1-1215): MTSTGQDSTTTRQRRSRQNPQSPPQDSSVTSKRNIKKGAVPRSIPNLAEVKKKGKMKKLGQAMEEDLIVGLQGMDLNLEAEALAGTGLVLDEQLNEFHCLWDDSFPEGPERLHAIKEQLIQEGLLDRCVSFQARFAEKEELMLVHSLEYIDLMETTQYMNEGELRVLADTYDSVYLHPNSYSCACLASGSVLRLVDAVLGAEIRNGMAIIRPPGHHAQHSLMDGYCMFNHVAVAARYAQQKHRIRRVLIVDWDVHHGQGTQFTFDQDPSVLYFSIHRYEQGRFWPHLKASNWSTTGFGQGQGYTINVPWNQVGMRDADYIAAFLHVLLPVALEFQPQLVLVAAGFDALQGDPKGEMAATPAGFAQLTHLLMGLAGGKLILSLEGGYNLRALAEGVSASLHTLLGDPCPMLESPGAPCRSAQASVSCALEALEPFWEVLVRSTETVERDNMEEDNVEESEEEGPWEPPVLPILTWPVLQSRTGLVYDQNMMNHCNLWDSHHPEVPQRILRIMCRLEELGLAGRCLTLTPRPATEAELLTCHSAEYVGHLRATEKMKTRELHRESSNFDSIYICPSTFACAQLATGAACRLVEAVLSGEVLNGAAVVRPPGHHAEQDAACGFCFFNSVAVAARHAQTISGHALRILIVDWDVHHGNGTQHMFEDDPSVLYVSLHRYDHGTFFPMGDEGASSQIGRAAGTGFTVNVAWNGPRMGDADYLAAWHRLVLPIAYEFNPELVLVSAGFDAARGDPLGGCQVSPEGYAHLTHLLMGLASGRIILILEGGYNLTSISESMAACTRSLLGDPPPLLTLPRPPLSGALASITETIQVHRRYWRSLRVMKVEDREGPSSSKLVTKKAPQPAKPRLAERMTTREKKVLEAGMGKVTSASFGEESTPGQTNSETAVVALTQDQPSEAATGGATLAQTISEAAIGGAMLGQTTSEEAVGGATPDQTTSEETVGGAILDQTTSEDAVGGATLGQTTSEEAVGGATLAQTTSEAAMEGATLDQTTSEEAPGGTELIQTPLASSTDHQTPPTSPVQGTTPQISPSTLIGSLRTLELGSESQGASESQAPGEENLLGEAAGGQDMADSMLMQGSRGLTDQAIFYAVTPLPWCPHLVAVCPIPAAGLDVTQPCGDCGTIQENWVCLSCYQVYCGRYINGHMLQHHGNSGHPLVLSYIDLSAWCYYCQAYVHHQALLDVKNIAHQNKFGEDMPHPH

EZH1 = target: T2, EZH1 (Homo sapiens, UniProt Q92800); assay: Epigenetic panel (BPS Bioscience)
T2 construct: purchased BPS Bioscience; Eurofins (HDAC4, 5, 7-11)
From the text: (§1) The selectivity of CM-444 and CM-1758 against other epigenetic targets, including histone demethylase (JMJD2A, JMJD2B, JMJD2C, JMJD2D, JMJD2E, JMJD3, JMJD1A, LSD1, Jarid1A, Jarid1B, Jarid1C, FBXL10, FBXL11, JHDM1D, JMJD1B, PHF8, LSD2 and UTX); histone acetyltransferases (GCN5, P300); histone methyltransferases (G9a, GLP, MLL1, SET7/9, SUV39H1, SUV39H2, PRMT1, PRMT3, PRMT4, PRMT5, PRMT6, PRMT8, PRMT9, NSD1, NSD2, EZH1, EZH2, SETDB1, SETD2, SET8, SUV4-20H1, SMYD2, SMYD3, DOT1L, EZH2 (A677G), EZH2 (A677G), EZH2 (A738T), EZH2 (Y641S), EZH2 (P132S), EZH2 (Y641C), EZH2 (Y641F), EZH2 (Y641H), EZH2 (Y641N)); bromodomains (ATAD2B, ATAD2A, BRD1, BRD9, BPTF/FALZ, CeCR2, BRPF3, BRD3 (BD1 + BD2), BAZ2B, WDR9, TAF1 (BD2), TAF1L (BD2), TAF1L (BD1 + BD2), BRD2 (BD1), BRD2 (BD2), BRD2 (BD1 + BD2), BRD3 (BD1), BRD3 (BD2), BRD4 (BD1), BRD4 (BD2), BRD4 (BD1 + BD2), BRDT (BD1), BRDT (BD1 + BD2), CREBBP, SMARCA2A, SMARCA4/BRG1); DNA methyltranferases (DNMT1, DNMT3A/3L and DNMT3B/3L), and sirtuin histone deacetylases (SIRT1, SIRT2, SIRT3, SIRT5 and SIRT6), were determined by BPS Bioscience (http://www.bpsbioscience.com/index.ph). Binding experiments were performed in duplicate at a concentration of 10 μM.

EZH2 (A677G) = target: T3, EZH2 (A677G) (Homo sapiens, UniProt Q15910, A677G); assay: Epigenetic panel (BPS Bioscience)
T3 construct: purchased BPS Bioscience; Eurofins (HDAC4, 5, 7-11)
From the text: as §1

EZH2 = target: T4, EZH2 (Homo sapiens, UniProt Q15910); assay: Epigenetic panel (BPS Bioscience)
T4 construct: purchased BPS Bioscience; Eurofins (HDAC4, 5, 7-11)
From the text: as §1

EZH2 (Y641F) = target: T5, EZH2 (Y641F) (Homo sapiens, UniProt Q15910, Y641F); assay: Epigenetic panel (BPS Bioscience)
T5 construct: purchased BPS Bioscience; Eurofins (HDAC4, 5, 7-11)
From the text: as §1

GCN5 = target: T6, GCN5 (Homo sapiens, UniProt Q92830); assay: Epigenetic panel (BPS Bioscience); conditions: read-out: % of inhibition
T6 construct: purchased BPS Bioscience; Eurofins (HDAC4, 5, 7-11)
From the text: as §1

JMJD2A = target: T7, JMJD2A (Homo sapiens, UniProt O75164); assay: Epigenetic panel (BPS Bioscience)
T7 construct: purchased BPS Bioscience; Eurofins (HDAC4, 5, 7-11)
From the text: as §1

JMJD2C = target: T8, JMJD2C (Homo sapiens, UniProt Q9H3R0); assay: Epigenetic panel (BPS Bioscience)
T8 construct: purchased BPS Bioscience; Eurofins (HDAC4, 5, 7-11)
From the text: as §1

Jarid1B = target: T9, Jarid1B (Homo sapiens, UniProt Q9UGL1); assay: Epigenetic panel (BPS Bioscience)
T9 construct: purchased BPS Bioscience; Eurofins (HDAC4, 5, 7-11)
From the text: as §1

PRMT3 = target: T10, PRMT3 (Homo sapiens, UniProt O60678); assay: Epigenetic panel (BPS Bioscience)
T10 construct: purchased BPS Bioscience; Eurofins (HDAC4, 5, 7-11)
From the text: as §1

PRMT6 = target: T11, PRMT6 (Homo sapiens, UniProt Q96LA8); assay: Epigenetic panel (BPS Bioscience)
T11 construct: purchased BPS Bioscience; Eurofins (HDAC4, 5, 7-11)
From the text: as §1

SET7/9 = target: T12, SET7/9 (Homo sapiens, UniProt Q8WTS6); assay: Epigenetic panel (BPS Bioscience)
T12 construct: purchased BPS Bioscience; Eurofins (HDAC4, 5, 7-11)
From the text: as §1

SIRT2 = target: T13, SIRT2 (Homo sapiens, UniProt Q8IXJ6); assay: Epigenetic panel (BPS Bioscience)
T13 construct: purchased BPS Bioscience; Eurofins (HDAC4, 5, 7-11)
From the text: as §1

SIRT5 = target: T14, SIRT5 (Homo sapiens, UniProt Q9NXA8); assay: Epigenetic panel (BPS Bioscience)
T14 construct: purchased BPS Bioscience; Eurofins (HDAC4, 5, 7-11)
From the text: as §1

SMYD3 = target: T15, SMYD3 (Homo sapiens, UniProt Q9H7B4); assay: Epigenetic panel (BPS Bioscience)
T15 construct: purchased BPS Bioscience; Eurofins (HDAC4, 5, 7-11)
From the text: as §1

T10 sequence (O60678 whole entry): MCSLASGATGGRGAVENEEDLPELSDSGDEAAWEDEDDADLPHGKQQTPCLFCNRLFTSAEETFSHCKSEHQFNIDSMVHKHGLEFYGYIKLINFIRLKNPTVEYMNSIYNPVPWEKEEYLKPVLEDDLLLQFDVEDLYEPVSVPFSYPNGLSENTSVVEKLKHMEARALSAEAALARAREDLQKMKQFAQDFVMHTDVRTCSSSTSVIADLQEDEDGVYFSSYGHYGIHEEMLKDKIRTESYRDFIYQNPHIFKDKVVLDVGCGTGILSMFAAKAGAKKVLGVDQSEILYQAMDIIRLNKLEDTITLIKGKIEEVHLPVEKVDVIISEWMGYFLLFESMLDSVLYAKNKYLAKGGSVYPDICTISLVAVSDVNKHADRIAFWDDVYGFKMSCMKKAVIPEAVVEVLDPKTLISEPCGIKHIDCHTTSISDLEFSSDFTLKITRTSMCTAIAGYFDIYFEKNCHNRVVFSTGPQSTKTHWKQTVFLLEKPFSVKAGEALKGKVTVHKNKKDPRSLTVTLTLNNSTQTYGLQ
T7 sequence (O75164 whole entry): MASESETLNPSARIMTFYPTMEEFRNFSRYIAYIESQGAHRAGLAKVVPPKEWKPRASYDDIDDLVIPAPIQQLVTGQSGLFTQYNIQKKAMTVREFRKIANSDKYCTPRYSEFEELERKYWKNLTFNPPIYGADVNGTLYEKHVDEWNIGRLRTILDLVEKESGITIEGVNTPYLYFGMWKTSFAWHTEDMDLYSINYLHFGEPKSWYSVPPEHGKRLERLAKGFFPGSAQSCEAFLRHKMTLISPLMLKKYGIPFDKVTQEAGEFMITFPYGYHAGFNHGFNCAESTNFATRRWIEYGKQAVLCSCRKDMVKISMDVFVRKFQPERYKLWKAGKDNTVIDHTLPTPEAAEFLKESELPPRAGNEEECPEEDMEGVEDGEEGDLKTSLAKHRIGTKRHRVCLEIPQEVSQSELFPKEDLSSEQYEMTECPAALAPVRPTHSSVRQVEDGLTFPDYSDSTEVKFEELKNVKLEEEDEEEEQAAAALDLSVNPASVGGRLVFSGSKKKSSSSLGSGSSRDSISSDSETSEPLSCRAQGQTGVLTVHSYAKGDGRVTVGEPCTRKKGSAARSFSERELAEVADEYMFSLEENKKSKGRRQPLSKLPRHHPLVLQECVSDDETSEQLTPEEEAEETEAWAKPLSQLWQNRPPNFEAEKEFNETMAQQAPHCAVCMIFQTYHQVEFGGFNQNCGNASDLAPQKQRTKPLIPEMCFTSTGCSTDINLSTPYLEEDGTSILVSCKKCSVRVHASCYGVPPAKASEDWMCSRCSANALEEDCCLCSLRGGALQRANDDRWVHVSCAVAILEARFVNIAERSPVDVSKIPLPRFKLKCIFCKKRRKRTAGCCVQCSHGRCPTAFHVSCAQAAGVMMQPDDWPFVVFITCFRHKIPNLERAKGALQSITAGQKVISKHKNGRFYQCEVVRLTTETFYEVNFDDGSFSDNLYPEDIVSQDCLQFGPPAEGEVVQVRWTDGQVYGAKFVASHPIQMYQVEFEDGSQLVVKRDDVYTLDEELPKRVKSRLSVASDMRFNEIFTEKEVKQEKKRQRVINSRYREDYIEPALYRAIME
T13 sequence (Q8IXJ6 whole entry): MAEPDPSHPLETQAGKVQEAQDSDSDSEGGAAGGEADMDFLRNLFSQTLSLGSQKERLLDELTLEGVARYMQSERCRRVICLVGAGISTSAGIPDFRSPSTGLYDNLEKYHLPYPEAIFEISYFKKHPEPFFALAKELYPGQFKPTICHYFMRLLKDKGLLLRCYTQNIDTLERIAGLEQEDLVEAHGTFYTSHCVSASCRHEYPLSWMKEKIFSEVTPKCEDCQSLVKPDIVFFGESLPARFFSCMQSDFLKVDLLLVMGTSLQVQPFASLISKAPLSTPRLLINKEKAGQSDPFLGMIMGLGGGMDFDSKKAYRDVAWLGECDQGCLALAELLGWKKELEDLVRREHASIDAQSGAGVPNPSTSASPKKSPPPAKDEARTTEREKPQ
T14 sequence (Q9NXA8 37-310): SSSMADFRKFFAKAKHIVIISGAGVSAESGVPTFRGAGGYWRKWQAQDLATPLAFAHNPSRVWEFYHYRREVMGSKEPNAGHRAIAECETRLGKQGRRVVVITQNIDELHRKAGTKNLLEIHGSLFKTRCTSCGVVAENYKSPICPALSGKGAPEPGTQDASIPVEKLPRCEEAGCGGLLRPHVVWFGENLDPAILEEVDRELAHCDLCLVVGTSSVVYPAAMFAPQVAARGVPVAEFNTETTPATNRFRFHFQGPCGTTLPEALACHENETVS
T9 sequence (Q9UGL1 whole entry): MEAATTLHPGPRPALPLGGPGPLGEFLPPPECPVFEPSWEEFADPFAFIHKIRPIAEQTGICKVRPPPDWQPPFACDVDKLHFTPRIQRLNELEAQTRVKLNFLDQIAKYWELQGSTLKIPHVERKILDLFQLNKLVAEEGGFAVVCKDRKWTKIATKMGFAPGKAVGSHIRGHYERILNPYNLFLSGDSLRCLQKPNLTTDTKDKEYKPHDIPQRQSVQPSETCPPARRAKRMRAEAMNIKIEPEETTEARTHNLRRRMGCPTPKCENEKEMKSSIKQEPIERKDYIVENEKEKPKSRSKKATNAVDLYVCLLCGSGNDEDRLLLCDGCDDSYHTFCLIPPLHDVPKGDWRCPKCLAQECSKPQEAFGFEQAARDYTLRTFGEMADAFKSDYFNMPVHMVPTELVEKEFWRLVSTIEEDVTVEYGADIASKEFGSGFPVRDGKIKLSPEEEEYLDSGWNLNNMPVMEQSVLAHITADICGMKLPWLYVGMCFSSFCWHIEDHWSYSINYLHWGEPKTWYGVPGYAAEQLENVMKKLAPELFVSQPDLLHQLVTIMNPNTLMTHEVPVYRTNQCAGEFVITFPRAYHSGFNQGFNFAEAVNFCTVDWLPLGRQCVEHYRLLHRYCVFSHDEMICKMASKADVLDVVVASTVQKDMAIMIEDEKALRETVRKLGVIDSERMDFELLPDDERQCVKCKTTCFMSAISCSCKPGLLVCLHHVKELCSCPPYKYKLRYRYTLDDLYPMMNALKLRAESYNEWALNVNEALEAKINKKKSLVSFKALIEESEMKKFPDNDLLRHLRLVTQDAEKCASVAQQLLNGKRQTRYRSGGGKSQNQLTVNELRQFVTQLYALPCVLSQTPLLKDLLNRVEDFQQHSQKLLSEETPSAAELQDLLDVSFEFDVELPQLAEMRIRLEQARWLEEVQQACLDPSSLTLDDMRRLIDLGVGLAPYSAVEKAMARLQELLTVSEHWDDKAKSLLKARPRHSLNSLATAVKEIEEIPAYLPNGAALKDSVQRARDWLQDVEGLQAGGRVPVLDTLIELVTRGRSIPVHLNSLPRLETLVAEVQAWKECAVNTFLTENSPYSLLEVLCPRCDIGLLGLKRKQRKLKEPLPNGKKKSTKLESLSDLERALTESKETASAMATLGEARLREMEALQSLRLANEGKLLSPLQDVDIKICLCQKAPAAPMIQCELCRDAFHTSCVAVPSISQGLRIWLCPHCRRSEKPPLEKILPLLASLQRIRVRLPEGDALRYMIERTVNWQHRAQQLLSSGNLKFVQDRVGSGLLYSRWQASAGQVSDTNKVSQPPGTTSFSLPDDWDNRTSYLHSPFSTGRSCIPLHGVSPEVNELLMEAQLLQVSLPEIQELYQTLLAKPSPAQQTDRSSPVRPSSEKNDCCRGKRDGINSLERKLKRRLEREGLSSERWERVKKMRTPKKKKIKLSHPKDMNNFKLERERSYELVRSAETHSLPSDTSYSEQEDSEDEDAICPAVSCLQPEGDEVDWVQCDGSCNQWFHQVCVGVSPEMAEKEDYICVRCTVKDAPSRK
T11 sequence (Q96LA8 whole entry): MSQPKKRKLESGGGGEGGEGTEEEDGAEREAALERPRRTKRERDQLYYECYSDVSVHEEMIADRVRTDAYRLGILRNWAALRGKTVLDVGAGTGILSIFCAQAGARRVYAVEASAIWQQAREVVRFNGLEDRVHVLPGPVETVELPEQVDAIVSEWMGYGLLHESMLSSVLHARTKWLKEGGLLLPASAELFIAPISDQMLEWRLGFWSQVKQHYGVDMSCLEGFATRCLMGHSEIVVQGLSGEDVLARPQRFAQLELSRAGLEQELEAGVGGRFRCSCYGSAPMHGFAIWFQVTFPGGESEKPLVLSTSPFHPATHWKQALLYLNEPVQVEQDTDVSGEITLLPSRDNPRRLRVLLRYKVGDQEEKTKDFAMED
T15 sequence (Q9H7B4 whole entry): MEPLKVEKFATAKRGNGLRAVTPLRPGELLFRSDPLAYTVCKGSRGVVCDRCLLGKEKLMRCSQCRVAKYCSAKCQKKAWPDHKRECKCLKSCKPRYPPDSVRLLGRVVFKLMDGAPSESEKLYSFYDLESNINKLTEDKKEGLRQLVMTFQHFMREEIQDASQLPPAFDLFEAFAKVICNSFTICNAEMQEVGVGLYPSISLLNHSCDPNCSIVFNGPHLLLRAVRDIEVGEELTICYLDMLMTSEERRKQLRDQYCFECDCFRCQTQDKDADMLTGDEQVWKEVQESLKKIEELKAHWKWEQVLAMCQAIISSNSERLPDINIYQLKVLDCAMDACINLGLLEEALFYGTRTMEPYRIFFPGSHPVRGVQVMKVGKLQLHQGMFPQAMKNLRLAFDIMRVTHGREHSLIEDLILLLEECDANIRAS
T12 sequence (Q8WTS6 whole entry): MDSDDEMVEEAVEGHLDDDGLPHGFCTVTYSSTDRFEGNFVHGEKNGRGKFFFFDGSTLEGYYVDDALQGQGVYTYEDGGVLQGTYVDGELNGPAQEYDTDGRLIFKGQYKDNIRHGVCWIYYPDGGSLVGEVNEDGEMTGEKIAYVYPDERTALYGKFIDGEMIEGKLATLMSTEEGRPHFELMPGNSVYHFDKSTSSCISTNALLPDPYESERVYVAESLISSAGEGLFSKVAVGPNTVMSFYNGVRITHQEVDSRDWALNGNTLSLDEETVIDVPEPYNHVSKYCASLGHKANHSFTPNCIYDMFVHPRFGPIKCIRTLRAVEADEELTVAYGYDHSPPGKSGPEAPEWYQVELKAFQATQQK

With `COc1cc2nc(-c3ccc(C)o3)cc(NCC3CCN(c4ncc(C(=O)NO)cn4)CC3)c2cc1OC` [CM-444, 2-[4-[[[6,7-dimethoxy-2-(5-methyl-2-furyl)-4-quinolyl]amino]methyl]-1-piperidyl]pyrimidine-5-carbohydroxamic acid] as the molecule, how does the inhibition at 10 µM (HDAC6) read?
Its inhibition at 10 µM is 90%.

What about the IC50 (HDAC6) of the same molecule?
The IC50 was 531 nM.

What about the inhibition at 10 µM (EZH1) of the same molecule?
Its inhibition at 10 µM is 9%.

And the inhibition at 10 µM (EZH2 (A677G))?
The inhibition at 10 µM was 0%.

And the inhibition at 10 µM (EZH2)?
Its inhibition at 10 µM is 0%.

What about the inhibition at 10 µM (EZH2 (Y641F)) of the same molecule?
Its inhibition at 10 µM is 0%.

What about the inhibition at 10 µM (GCN5) of the same molecule?
Its inhibition at 10 µM is 31%.

What about the inhibition at 10 µM (JMJD2A) of the same molecule?
The inhibition at 10 µM was 21%.

What about the inhibition at 10 µM (JMJD2C) of the same molecule?
Its inhibition at 10 µM is 4%.

What about the inhibition at 10 µM (Jarid1B) of the same molecule?
Its inhibition at 10 µM is 5%.

And the inhibition at 10 µM (PRMT3)?
Its inhibition at 10 µM is 0%.

What about the inhibition at 10 µM (PRMT6) of the same molecule?
The inhibition at 10 µM was 0%.

And the inhibition at 10 µM (SET7/9)?
Its inhibition at 10 µM is 0%.

What about the inhibition at 10 µM (SIRT2) of the same molecule?
The inhibition at 10 µM was 14%.

What about the inhibition at 10 µM (SIRT5) of the same molecule?
Its inhibition at 10 µM is 7%.

And the inhibition at 10 µM (SMYD3)?
The inhibition at 10 µM was 35%.

For `COc1cc2nc(-c3cc(C)oc3C)cc(NCC3CCN(c4ncc(C(=O)NO)cn4)CC3)c2cc1OC` [CM-1758, 2-[4-[[[2-(2,5-dimethyl-3-furyl)-6,7-dimethoxy-4-quinolyl]amino]methyl] -1-piperidyl]pyrimidine-5-carbohydroxamic acid], which inhibition at 10 µM (HDAC6) is on record?
Its inhibition at 10 µM is 90%.

What about the IC50 (HDAC6) of the same molecule?
Its IC50 is 257 nM.

And the inhibition at 10 µM (EZH1)?
Its inhibition at 10 µM is 0%.

And the inhibition at 10 µM (EZH2 (A677G))?
Its inhibition at 10 µM is 5%.

And the inhibition at 10 µM (EZH2)?
Its inhibition at 10 µM is 0%.

And the inhibition at 10 µM (EZH2 (Y641F))?
Its inhibition at 10 µM is 1%.

And the inhibition at 10 µM (GCN5)?
The inhibition at 10 µM was 12%.

And the inhibition at 10 µM (JMJD2A)?
Its inhibition at 10 µM is 20%.

And the inhibition at 10 µM (JMJD2C)?
The inhibition at 10 µM was 9%.

What about the inhibition at 10 µM (Jarid1B) of the same molecule?
The inhibition at 10 µM was 29%.

And the inhibition at 10 µM (PRMT3)?
Its inhibition at 10 µM is 0%.

What about the inhibition at 10 µM (PRMT6) of the same molecule?
The inhibition at 10 µM was 0%.

And the inhibition at 10 µM (SET7/9)?
Its inhibition at 10 µM is 19%.

What about the inhibition at 10 µM (SIRT2) of the same molecule?
The inhibition at 10 µM was 0%.

And the inhibition at 10 µM (SIRT5)?
The inhibition at 10 µM was 2%.

What about the inhibition at 10 µM (SMYD3) of the same molecule?
The inhibition at 10 µM was 21%.
